# Patent US20250179094A1, “TGF-B INHIBITOR COMPOUND AND USE THEREOF” (Medinno Pharmaceutical Technology (Zhuhai) Co., Ltd., priority 2022, published 2025)
# pIC50: −log10 of the molar value.
# Target: human TGFβR1 (Homo sapiens (Human), UniProt P36897)
# Experiment: TGFβR1 kinase activity assay (ADP-Glo method)
# Format: biochemical
# Conditions: ATP 5 uM, TGFβR1tide substrate, 60 minutes at room temperature
# Procedure: The principle of the activity assay was that TGFβR1 phosphorylates the substrate TGFβR1tide, consuming ATP in the process. […] The specific experimental steps were as follows. Compounds were diluted 4-fold in DMSO in a dilution plate, with the final starting concentration of the compounds being 10 μM, across 10 concentration gradient points. The compounds were then further diluted 50-fold into the kinase reaction buffer and incubated on a shaker for 20 minutes. Kinase was formulated with an enzyme reaction buffer. 2 μl kinase was added to each well of the reaction plate. 1 μl of the compound diluted in buffer was added to each well, and then the plate was sealed with a sealing membrane and centrifuged at 1000 g for 30 seconds, leaving it at room temperature for 10 minutes. Solutions of TGFβR1tide and ATP were prepared with the kinase reaction buffer, and 2 μL of the TGFβR1tide/ATP solution was added to the reaction plate. The plate was sealed with a sealing film and centrifuged at 1000 g for 30 seconds. It was allowed to react at room temperature for 60 minutes. Subsequently, 4 μL of ADP-Glo was transferred to a 384-well reaction plate and centrifuged at 1000 rpm/min for 1 minute, followed by incubation at 25° C. for 40 minutes. Then, 8 μL of Detection solution was transferred to the 384-well reaction plate and centrifuged at 1000 rpm/min for 1 minute, after which it was incubated at 25° C. for 40 minutes. The RLU (Relative Luminescence Unit) signal was read using a BMG microplate reader, which was used to characterize the degree of kinase activity.
# 3.1 The inhibition rate was calculated as follows: inhibition rate of compound (% inh)=100%−(compound−positive control)/(negative control−positive control)*100%.
# The IC50 (half inhibition concentration) of a compound was obtained using the following non-linear fitting equation, wherein data analysis was performed using Graphpad 7.0 software.
# X: log value of compound concentration; and Y: inhibition rate (% inhibition)
# human TGFβR1, sequence (P36897 34-503): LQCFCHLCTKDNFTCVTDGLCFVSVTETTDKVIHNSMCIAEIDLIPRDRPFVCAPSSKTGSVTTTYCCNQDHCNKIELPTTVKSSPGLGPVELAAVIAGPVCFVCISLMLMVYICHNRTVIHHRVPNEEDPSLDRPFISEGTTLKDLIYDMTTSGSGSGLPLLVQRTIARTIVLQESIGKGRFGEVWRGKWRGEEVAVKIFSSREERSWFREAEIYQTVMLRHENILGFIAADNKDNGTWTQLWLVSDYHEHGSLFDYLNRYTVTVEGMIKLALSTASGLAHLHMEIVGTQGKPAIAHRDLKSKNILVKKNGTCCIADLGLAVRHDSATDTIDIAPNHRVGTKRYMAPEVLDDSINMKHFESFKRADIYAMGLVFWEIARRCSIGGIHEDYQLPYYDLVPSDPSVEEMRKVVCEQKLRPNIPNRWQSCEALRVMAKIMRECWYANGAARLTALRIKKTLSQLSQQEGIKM
row,Structure (SMILES),pIC50
1,"Cc1cccc(-c2nn(Cc3cccnc3)cc2-c2ccnc(-c3nc4c([nH]3)CN(S(C)(=O)=O)C4)c2)n1 [Compound 54, 2-[4-(3-(6-Methylpyridin-2-yl)-1-(pyridin-3-ylmethyl)-1H-pyrazol-4-yl)pyridin-2-yl]-5-(methylsulfonyl)-1,4,5,6-tetrahydropyrrolo[3,4-d]imidazole]",8.85
2,"Cc1cccc(-c2nn3c(c2-c2ccnc(-c4nc5c([nH]4)CN(S(=O)(=O)C(C)C)C5)c2)CCC3)n1 [Compound 69, 5-(Isopropylsulfonyl)-2-(4-(2-(6-methylpyridin-2-yl)-5,6-dihydro-4H-pyrrolo[1,2-b]pyrazol-3-yl)pyridin-2-yl)-1,4,5,6-tetrahydropyrrolo[3,4-d]imidazole]",8.89
3,"Cc1cccc(-c2nc3n(c2-c2ccnc(-c4nc5c([nH]4)CN(C(=O)c4cnn(C)c4)C5)c2)CCC3)n1 [Compound 11, (1-Methyl-1H-pyrazol-4-yl)(2-(4-(2-(6-methylpyridin-2-yl)-6,7-dihydro-5H-pyrrolo[1,2-a]imidazol-3-yl)pyridin-2-yl)-4,6-dihydropyrrolo[3,4-d]imidazol-5(1H)-yl)ketone]",7.94
4,"Cc1cccc(-c2nn(Cc3ccccc3F)cc2-c2ccnc(-c3nc4c([nH]3)CN(S(C)(=O)=O)C4)c2)n1 [Compound 51, 2-[4-(1-(2-Fluorobenzyl)-3-(6-methylpyridin-2-yl)-1H-pyrazol-4-yl)pyridin-2-yl]-5-(methylsulfonyl)-1,4,5,6-tetrahydropyrrolo[3,4-d]imidazole]",8.25
5,"Cc1cccc(-c2nc3n(c2-c2ccnc(-c4nc5c([nH]4)CN(CC4CC(O)C4)C5)c2)CCC3)n1 (centres unmarked) [Compound 26, 3-((2-(4-(2-(6-Methylpyridin-2-yl)-6,7-dihydro-5H-pyrrolo[1,2-a]imidazol-3-yl)pyridin-2-yl)-4,6-dihydropyrrolo[3,4-d]imidazol-5(1H)-yl)methyl)cyclobutanol]",8.39
6,"CCS(=O)(=O)N1Cc2nc(-c3cc(-c4cn(C)nc4-c4cccc(C)n4)ccn3)[nH]c2C1 [Compound 52, 5-(Ethylsulfonyl)-2-[4-(1-methyl-3-(6-methylpyridin-2-yl)-1H-pyrazol-4-yl)pyridin-2-yl]-1,4,5,6-tetrahydropyrrolo[3,4-d]imidazole]",8.68
7,"Cc1cccc(-c2nc3n(c2-c2ccnc(-c4nc5c([nH]4)CN(C)C5)c2)CCC3)n1 [Compound 3, 5-methyl-2-(4-(2-(6-methylpyridin-2-yl)-6,7-dihydro-5H-pyrrolo[1,2-a]imidazol-3-yl)pyridin-2-yl)-1,4,5,6-tetrahydropyrrolo[3,4-d]imidazole]",8.13
8,"Cc1cccc(-c2nc3n(c2-c2ccnc(-c4nc5c([nH]4)CNCC5)c2)CCC3)n1 [Compound 75, 2-(4-(2-(6-Methylpyridin-2-yl)-6,7-dihydro-5H-pyrrolo[1,2-a]imidazol-3-yl)pyridin-2-yl)-4,5,6,7-tetrahydro-3H-imidazolo[4,5-c]pyridine]",8.25
9,"Cc1cccc(-c2nn(CC(C)O)cc2-c2ccnc(-c3nc4c([nH]3)CNC4)c2)n1 (centres unmarked) [Compound 44, 3-(3-(6-Methylpyridin-2-yl)-4-(2-(1,4,5,6-tetrahydropyrrolo[3,4-d]imidazol-2-yl)pyridin-4-yl)-1H-pyrazol-1-yl)propan-2-ol]",8.21
10,"Cc1cccc(-c2nn3c(c2-c2ccnc(-c4nc5c([nH]4)CN(S(C)(=O)=O)C5)c2)CCC3)n1 [Compound 66, 2-(4-(2-(6-Methylpyridin-2-yl)-5,6-dihydro-4H-pyrrolo[1,2-b]pyrazol-3-yl)pyridin-2-yl)-5-(methylsulfonyl)-1,4,5,6-tetrahydropyrrolo[3,4-d]imidazole]",8.40
11,"Cc1cccc(-c2nn(Cc3ccc(F)cc3)cc2-c2ccnc(-c3nc4c([nH]3)CN(S(C)(=O)=O)C4)c2)n1 [Compound 50, 2-[4-(1-(4-Fluorobenzyl)-3-(6-methylpyridin-2-yl)-1H-pyrazol-4-yl)pyridin-2-yl]-5-(methylsulfonyl)-1,4,5,6-tetrahydropyrrolo[3,4-d]imidazole]",8.66
